Measurements taken from patent publication US20140343001A1, “INDOLE DERIVATIVES INHIBITORS OF ENZYME LACTATE DEHYDROGENASE (LDH)” (Universitá di Pisa, priority 2011, published 2014).

Key:
H1299 = experiment: Inhibition of tumor cell growth method (a), sulforhodamine B assay; assay type: cell-based; details: Homo sapiens, NCI-H1299; H1299, 72 hours, SRB
Method: (§1) The plates were incubated at 37° C. in an atmosphere composed of 95% air and 5% CO2 for 72 hours. The culture medium was then removed and the cells were fixed by addition of 50 μL of a 10% solution of trichloroacetic acid in water at 4° C. in each well. The plates were incubated at 4° C. for at least one hour, after which the colorimetric assay of sulforhodamine B (SRB) was carried out to determine the amount of biomass remaining in each well as described in previously developed methodologies [Vichai, V.; Kirtikara, K. Nat. Protoc. […] Briefly, the plates were washed several times with water and dried prior to the addition of 50 μL of a solution of dye sulforhodamine B (composed by 0.057% weight/weight of sulforhodamine B in 1% acetic acid) to each well. After 30 minutes of incubation, the unbound dye was removed by washing six times with 1% acetic acid. […] After an incubation period of 30 minutes, the absorbance in each well was read at a wavelength of 510 nm in a microplate reader. The cells treated only with vehicle consisting of a 1% solution of DMSO (vehicle) were used as control of 100% of live cells in the biomass and the wells incubated with the vehicle alone (without cells) were used to determine the baseline (0%) of live biomass. The IC50 values were calculated using the software SoftMax Pro (Molecular Devices, Sunnyvale, Calif.).

H226 = experiment: as above; assay type: cell-based; details: Homo sapiens, NCI-H226; H226, 72 hours, SRB
Method: as §1

HeLa = experiment: as above; assay type: cell-based; details: Homo sapiens, 72 hours, SRB
Method: as §1

IGROV-1 = experiment: as above; assay type: cell-based; details: Homo sapiens; IGROV-1, 72 hours, SRB
Method: as §1

MCF-7 = experiment: as above; assay type: cell-based; details: Homo sapiens, MCF7; MCF-7, 72 hours, SRB
Method: as §1

A549 cells = experiment: Inhibition of tumor cell growth method (b), CellTiter-Glo; assay type: cell-based; details: Homo sapiens, A549, 72 h
Description: (§2) CellTiter-Glo® Luminescent Cell Viability Assay (Promega) is a homogeneous method of determining the number of viable cells in culture based on quantitation of the present ATP, which indicates the presence of metabolically active cells. The homogeneous assay procedure involves addition of a single reagent (CellTiter-Glo® Reagent) directly to the cells, which leads to cell lysis and generation of a luminescent signal proportional to the amount of the ATP and the number of cells present in culture. The assay relies on the properties of a proprietary thermostable luciferase (Ultra-Glo® recombinant luciferase), which generates a luminescent signal.
(§3) After 72 h, a volume of CellTiter-Glo® Reagent equal to the volume of cell culture medium was added. The content was mixed for 2 min to induce cell lysis. The luminescence was recorded after further 10 min at RT in order to obtain a stable luminescent signal.
(§4) The IC50 was calculated using GraphPad Software.

H1975 = experiment: as above; assay type: cell-based; details: Homo sapiens, NCI-H1975, H1975, 72 h
Description: as §2, §3, §4

HeLa cells = experiment: Determination of cellular production of lactate (GC/MS); assay type: cell-based; details: 8 hours, concentrations from 50 to 200 μM, comparable or superior to 2-DeoxGlu at 10 mM
hLDH5 (LDH-A) = target: T1, hLDH5 (LDH-A) (Homo sapiens, UniProt P00338); experiment: Enzyme inhibition of human lactate dehydrogenase isoform 5; assay type: biochemical; details: ranges of values, pH 7.4; for Ki: 37° C., read-out: inhibitory activity against hLDH5 (Ki)
T1 construct: purchased LEEBIO (USA)
Method: The compounds described in the examples were evaluated in enzymatic assays to assess its inhibitory properties against two human isoforms of lactate dehydrogenase, hLDH5 containing solely the subunit LDH-A (LEEBIO—USA), and the hLDH1 containing only the LDH subunits-B (Sigma Aldrich, USA), in order to verify the selectivity of these compounds.
(for Ki measurements). Such assays were conducted in cells containing 200 μL of a solution comprising the reagents dissolved in phosphate buffer (KH2PO4 and K2HPO4) at pH 7.4.
IC50 values were calculated as described below. […] Seven different concentrations (in duplicate for each concentration) of compound were used to generate a concentration-response curve. […] Compound solutions were dispensed in 96-well plates (8 μL), then substrate and cofactor dissolved in buffer (152 μl) and enzyme solution (40 μl) were finally added. Dilution of the enzyme stock solution was made to allow a 10% consumption of the cofactor after 15 min. The eventual background fluorescence of the tested compounds or quenching of the NADH fluorescence by the tested compounds was subtracted. In addition to the compound test wells, each plate contained maximum and minimum controls. Assay plates were incubated at room temperature for 15 min and the final measurements were performed using Victor X3 Microplates reader (PerkinElmer®) at a fluorescence emission wavelength of 460 nm (excitation at 340 nm). IC50 were generated using the curve-fitting tool of GraphPad Prism].
The resulting data of enzymatic kinetic (the constants of Michaelis-Menten) were determined by analysis of non-linear regression.

| Structure (SMILES) | IC50 (H1299) | IC50 (H226) | IC50 (HeLa) | IC50 (IGROV-1) | IC50 (MCF-7) | IC50 (A549 cells) | IC50 (H1975) | Ki (hLDH5 (LDH-A)) | IC50 (hLDH5 (LDH-A); room temperature, read-out: inhibitory activity against hLDH5 (IC50)) | reduction of cellular production of lactate (HeLa cells) |
| --- | --- | --- | --- | --- | --- | --- | --- | --- | --- | --- |
| O=C(O)c1cc2c(C(F)(F)F)cc(-c3ccccc3)cc2n1O [1-hydroxy-6-phenyl-4-trifluoromethyl-1H-indol-2-carboxylic acid, reference compound] | 141 µM | 121 µM | 44 µM | 123 µM | 124 µM | 60 µM | 57 µM |  |  |  |
| COC(=O)c1cc2c(C(F)(F)F)cc(-c3ccccc3)cc2n1O[C@@H]1O[C@H](CO)[C@@H](O)[C@H](O)[C@H]1O [Example 3, methyl 6-phenyl-1-(β-D-glucopyranosyl)oxy-4-(trifluoromethyl)-1H-indole-2-carboxylate] | < 40 µM | < 26 µM | < 17 µM | < 31 µM | < 35 µM | ≤ 31 µM | ≤ 31 µM |  |  | reduce effectively cellular production of lactate |
| COC(=O)c1cc2c(C(F)(F)F)cc(-c3ccc(Cl)cc3Cl)cc2n1O[C@@H]1O[C@H](CO)[C@@H](O)[C@H](O)[C@H]1O [Example 10, methyl 6-(2,4-dichlorophenyl)-1-(β-D-glucopyranosyl)oxy-4-(trifluoromethyl)-1H-indole-2-carboxylate] |  |  | < 15 µM |  | < 17 µM |  |  |  | 50 to 500 µM |  |
| CC(C)OC(=O)c1cc2c(C(F)(F)F)cc(-c3ccc(Cl)cc3Cl)cc2n1O [Example 32, isopropyl 6-(2,4-dichlorophenyl)-1-hydroxy-4-(trifluoromethyl)-1H-indole-2-carboxylate] |  |  |  |  |  | ≤ 31 µM | ≤ 31 µM | 0.5 to 5 µM |  | reduce effectively cellular production of lactate |

The next lines start with results.

| IC50 (H1299) | IC50 (H226) | IC50 (HeLa) | IC50 (IGROV-1) | IC50 (MCF-7) | IC50 (A549 cells) | IC50 (H1975) | Ki (hLDH5 (LDH-A)) | IC50 (hLDH5 (LDH-A); room temperature, read-out: inhibitory activity against hLDH5 (IC50)) | Structure (SMILES) | reduction of cellular production of lactate (HeLa cells) |
| --- | --- | --- | --- | --- | --- | --- | --- | --- | --- | --- |
| < 40 µM | < 26 µM | < 17 µM | < 31 µM | < 35 µM | ≤ 31 µM | ≤ 31 µM | 1 to 10 µM |  | CCOC(=O)c1cc2c(C(F)(F)F)cc(-c3ccccc3)cc2n1O [Example 1, ethyl 1-hydroxy-6-phenyl-4-(trifluoromethyl)-1H-indole-2-carboxylate] | reduce effectively cellular production of lactate |
|  |  | < 15 µM |  | < 17 µM | ≤ 31 µM | ≤ 31 µM | 1 to 10 µM |  | COC(=O)c1cc2c(C(F)(F)F)cc(-c3ccc(Cl)cc3Cl)cc2n1O [Example 8, methyl 6-(2,4-dichlorophenyl)-1-hydroxy-4-(trifluoromethyl)-1H-indole-2-carboxylate] | reduce effectively cellular production of lactate |
|  |  |  |  |  | ≤ 31 µM | ≤ 31 µM | 0.5 to 5 µM |  | CCCCOC(=O)c1cc2c(C(F)(F)F)cc(-c3ccccc3)cc2n1O [Example 22, butyl 1-hydroxy-6-phenyl-4-(trifluoromethyl)-1H-indole-2-carboxylate] | reduce effectively cellular production of lactate |
|  |  |  |  |  | ≤ 31 µM | ≤ 31 µM | 1 to 10 µM |  | CC(C)OC(=O)c1cc2c(C(F)(F)F)cc(-c3ccccc3)cc2n1O [Example 23, isopropyl 1-hydroxy-6-phenyl-4-(trifluoromethyl)-1H-indole-2-carboxylate] | reduce effectively cellular production of lactate |
